Measured values reported in ChEMBL document CHEMBL5442219.

Columns and labels:
Details in all cases: Compound concentration 10 µM
[1] = target: T1, Alpha-1B adrenergic receptor (Homo sapiens) (UniProt P35368)
T1 sequence (whole entry): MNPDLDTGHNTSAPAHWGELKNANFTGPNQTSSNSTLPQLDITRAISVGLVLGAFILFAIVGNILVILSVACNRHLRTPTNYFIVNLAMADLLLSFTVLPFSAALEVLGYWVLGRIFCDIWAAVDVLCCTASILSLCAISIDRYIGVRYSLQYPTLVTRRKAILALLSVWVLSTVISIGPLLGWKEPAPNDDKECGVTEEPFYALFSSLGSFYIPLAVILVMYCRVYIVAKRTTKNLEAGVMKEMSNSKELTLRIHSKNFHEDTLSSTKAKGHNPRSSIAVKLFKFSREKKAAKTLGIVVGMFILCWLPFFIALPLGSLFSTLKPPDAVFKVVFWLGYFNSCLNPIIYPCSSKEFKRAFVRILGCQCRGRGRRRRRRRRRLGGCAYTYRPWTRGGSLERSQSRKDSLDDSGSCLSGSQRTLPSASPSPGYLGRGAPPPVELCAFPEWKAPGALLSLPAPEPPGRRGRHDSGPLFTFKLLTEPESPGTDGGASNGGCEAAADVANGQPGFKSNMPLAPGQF
Description: PDSP Primary Binding target: ADRA1B - Compounds are tested at 10 uM concentration, plate are incubated at room temperature in the dark for 90 minutes. Reaction are stopped by vacuum filtration onto 0.3% polyethyleneimine soaked filter mats using Filtermate harvester. Scintilation cocktail is then melted onto microwave-dried filters on a hot plate and the radio activity is counted in Microbia counter.

[2] = target: T2, Alpha-1D adrenergic receptor (Homo sapiens) (UniProt P25100)
T2 sequence (whole entry): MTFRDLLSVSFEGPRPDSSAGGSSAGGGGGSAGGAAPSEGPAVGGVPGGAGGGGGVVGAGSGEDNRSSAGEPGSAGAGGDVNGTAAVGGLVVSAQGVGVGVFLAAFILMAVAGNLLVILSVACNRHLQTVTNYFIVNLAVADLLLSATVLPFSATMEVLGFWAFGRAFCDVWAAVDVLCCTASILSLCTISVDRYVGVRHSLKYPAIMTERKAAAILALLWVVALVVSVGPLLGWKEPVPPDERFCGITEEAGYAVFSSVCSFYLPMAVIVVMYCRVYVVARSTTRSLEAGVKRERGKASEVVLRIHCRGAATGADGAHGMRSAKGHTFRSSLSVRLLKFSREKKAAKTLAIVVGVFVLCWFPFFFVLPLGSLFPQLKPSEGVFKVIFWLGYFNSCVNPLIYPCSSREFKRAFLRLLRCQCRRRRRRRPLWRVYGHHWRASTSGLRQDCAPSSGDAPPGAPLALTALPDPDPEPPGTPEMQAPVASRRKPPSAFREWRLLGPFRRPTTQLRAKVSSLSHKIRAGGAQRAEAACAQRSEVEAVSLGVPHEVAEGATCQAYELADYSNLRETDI
Description: PDSP Primary Binding target: ADRA1D - Compounds are tested at 10 uM concentration, plate are incubated at room temperature in the dark for 90 minutes. Reaction are stopped by vacuum filtration onto 0.3% polyethyleneimine soaked filter mats using Filtermate harvester. Scintilation cocktail is then melted onto microwave-dried filters on a hot plate and the radio activity is counted in Microbia counter.

[3] = target: Beta-1 adrenergic receptor (Homo sapiens) (UniProt P08588)
Beta-1 adrenergic receptor (Homo sapiens), sequence (P08588 whole entry, looked up): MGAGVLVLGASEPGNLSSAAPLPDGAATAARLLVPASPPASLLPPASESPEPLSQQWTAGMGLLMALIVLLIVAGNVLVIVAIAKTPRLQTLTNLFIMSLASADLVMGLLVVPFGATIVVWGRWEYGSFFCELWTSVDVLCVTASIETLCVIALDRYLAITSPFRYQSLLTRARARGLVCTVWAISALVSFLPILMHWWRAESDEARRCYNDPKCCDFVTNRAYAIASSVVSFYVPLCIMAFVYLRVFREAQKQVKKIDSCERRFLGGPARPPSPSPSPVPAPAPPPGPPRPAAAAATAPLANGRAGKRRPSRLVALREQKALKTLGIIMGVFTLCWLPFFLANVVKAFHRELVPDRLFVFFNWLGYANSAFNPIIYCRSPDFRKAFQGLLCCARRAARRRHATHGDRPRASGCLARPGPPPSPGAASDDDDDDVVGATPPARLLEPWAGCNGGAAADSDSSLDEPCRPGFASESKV
Description: PDSP Primary Binding target: ADRB1 - Compounds are tested at 10 uM concentration, plate are incubated at room temperature in the dark for 90 minutes. Reaction are stopped by vacuum filtration onto 0.3% polyethyleneimine soaked filter mats using Filtermate harvester. Scintilation cocktail is then melted onto microwave-dried filters on a hot plate and the radio activity is counted in Microbia counter.

[4] = target: T3, Muscarinic acetylcholine receptor M2 (Homo sapiens) (UniProt P08172)
T3 sequence (whole entry): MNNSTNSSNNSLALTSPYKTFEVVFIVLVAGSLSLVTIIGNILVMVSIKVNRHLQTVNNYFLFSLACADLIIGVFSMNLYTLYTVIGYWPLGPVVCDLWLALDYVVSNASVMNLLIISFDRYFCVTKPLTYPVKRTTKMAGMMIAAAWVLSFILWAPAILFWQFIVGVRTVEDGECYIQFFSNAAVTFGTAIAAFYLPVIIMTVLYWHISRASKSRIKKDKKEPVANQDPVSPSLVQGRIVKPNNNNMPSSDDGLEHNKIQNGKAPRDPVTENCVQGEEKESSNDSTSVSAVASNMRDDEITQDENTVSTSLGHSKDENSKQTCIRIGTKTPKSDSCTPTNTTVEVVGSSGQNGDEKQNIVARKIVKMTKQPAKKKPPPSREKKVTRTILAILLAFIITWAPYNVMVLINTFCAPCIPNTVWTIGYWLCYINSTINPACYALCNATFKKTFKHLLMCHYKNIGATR
Description: PDSP Primary Binding target: CHRM2 - Compounds are tested at 10 uM concentration, plate are incubated at room temperature in the dark for 90 minutes. Reaction are stopped by vacuum filtration onto 0.3% polyethyleneimine soaked filter mats using Filtermate harvester. Scintilation cocktail is then melted onto microwave-dried filters on a hot plate and the radio activity is counted in Microbia counter.

[5] = target: Muscarinic acetylcholine receptor M3 (Homo sapiens) (UniProt P20309)
Muscarinic acetylcholine receptor M3 (Homo sapiens), sequence (P20309 whole entry, looked up): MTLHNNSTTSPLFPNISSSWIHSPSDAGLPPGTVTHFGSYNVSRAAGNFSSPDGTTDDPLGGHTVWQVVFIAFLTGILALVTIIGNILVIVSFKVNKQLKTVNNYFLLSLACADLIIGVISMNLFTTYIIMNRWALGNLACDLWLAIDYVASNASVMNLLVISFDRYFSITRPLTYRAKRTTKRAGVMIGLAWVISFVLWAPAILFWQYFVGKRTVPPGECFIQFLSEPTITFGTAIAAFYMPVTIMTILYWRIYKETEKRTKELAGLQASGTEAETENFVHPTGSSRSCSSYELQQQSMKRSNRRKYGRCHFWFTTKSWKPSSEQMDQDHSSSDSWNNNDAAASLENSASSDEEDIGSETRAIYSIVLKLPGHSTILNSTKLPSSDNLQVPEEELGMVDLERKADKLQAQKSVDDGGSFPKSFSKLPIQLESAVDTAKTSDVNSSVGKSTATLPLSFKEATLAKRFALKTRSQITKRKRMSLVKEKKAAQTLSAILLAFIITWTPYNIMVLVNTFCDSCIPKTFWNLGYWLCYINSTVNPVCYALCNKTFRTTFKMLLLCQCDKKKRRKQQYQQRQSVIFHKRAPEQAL
Description: PDSP Primary Binding target: CHRM3 - Compounds are tested at 10 uM concentration, plate are incubated at room temperature in the dark for 90 minutes. Reaction are stopped by vacuum filtration onto 0.3% polyethyleneimine soaked filter mats using Filtermate harvester. Scintilation cocktail is then melted onto microwave-dried filters on a hot plate and the radio activity is counted in Microbia counter.

[6] = target: Histamine H3 receptor (Homo sapiens) (UniProt Q9Y5N1)
Histamine H3 receptor (Homo sapiens), sequence (Q9Y5N1 whole entry): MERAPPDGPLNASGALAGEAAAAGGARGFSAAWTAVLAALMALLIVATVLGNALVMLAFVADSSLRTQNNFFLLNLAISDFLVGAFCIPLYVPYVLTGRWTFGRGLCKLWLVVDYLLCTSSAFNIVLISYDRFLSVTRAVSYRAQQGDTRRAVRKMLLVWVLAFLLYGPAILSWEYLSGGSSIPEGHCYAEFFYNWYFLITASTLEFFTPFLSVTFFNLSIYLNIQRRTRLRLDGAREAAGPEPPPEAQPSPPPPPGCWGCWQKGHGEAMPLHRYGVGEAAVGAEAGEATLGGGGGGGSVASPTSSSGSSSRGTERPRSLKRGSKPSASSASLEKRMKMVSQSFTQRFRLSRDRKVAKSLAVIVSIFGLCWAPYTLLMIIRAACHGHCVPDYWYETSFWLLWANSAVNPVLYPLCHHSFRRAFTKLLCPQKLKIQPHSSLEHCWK
Description: PDSP Primary Binding target: HRH3 - Compounds are tested at 10 uM concentration, plate are incubated at room temperature in the dark for 90 minutes. Reaction are stopped by vacuum filtration onto 0.3% polyethyleneimine soaked filter mats using Filtermate harvester. Scintilation cocktail is then melted onto microwave-dried filters on a hot plate and the radio activity is counted in Microbia counter.

[7] = target: 5-hydroxytryptamine receptor 2B (Homo sapiens) (UniProt P41595)
5-hydroxytryptamine receptor 2B (Homo sapiens), sequence (P41595 whole entry): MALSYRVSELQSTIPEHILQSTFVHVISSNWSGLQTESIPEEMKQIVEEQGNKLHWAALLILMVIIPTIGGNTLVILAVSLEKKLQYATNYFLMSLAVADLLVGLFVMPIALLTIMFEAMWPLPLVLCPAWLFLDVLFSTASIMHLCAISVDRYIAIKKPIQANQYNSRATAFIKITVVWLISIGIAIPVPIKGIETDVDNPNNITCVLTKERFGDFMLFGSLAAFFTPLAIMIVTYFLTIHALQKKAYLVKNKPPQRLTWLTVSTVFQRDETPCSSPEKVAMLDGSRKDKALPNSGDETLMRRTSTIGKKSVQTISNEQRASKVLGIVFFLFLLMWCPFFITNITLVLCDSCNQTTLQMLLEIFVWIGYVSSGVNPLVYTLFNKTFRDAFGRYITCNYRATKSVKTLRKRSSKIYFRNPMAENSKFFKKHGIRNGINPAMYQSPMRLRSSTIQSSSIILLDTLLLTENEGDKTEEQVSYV
Description: PDSP Primary Binding target: HTR2B - Compounds are tested at 10 uM concentration, plate are incubated at room temperature in the dark for 90 minutes. Reaction are stopped by vacuum filtration onto 0.3% polyethyleneimine soaked filter mats using Filtermate harvester. Scintilation cocktail is then melted onto microwave-dried filters on a hot plate and the radio activity is counted in Microbia counter.

[8] = target: T4, 5-hydroxytryptamine receptor 3A (Homo sapiens) (UniProt P46098)
T4 sequence (whole entry): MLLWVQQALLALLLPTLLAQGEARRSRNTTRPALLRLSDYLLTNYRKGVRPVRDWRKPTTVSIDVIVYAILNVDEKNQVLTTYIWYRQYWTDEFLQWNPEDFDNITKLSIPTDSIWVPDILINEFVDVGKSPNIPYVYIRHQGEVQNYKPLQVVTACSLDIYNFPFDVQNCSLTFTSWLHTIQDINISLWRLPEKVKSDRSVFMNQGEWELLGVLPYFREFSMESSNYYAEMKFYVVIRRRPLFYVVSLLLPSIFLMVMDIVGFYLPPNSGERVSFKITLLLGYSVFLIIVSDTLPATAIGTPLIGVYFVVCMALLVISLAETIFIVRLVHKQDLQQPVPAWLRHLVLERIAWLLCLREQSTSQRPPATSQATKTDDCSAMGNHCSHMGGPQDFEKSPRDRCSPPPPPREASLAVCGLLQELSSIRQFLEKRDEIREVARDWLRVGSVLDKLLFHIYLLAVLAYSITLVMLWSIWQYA
Description: PDSP Primary Binding target: HTR3A - Compounds are tested at 10 uM concentration, plate are incubated at room temperature in the dark for 90 minutes. Reaction are stopped by vacuum filtration onto 0.3% polyethyleneimine soaked filter mats using Filtermate harvester. Scintilation cocktail is then melted onto microwave-dried filters on a hot plate and the radio activity is counted in Microbia counter.

[9] = target: 5-hydroxytryptamine receptor 5A (Homo sapiens) (UniProt P47898)
5-hydroxytryptamine receptor 5A (Homo sapiens), sequence (P47898 whole entry): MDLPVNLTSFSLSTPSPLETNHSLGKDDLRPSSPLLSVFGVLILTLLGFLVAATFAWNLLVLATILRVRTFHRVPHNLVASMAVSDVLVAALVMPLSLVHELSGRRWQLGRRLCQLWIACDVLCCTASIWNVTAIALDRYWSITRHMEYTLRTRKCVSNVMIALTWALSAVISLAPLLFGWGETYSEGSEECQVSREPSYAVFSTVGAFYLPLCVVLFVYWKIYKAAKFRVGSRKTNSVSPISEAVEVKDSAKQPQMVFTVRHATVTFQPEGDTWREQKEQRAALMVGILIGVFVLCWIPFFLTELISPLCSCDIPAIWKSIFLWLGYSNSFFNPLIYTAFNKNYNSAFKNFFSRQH
Description: PDSP Primary Binding target: HTR5A - Compounds are tested at 10 uM concentration, plate are incubated at room temperature in the dark for 90 minutes. Reaction are stopped by vacuum filtration onto 0.3% polyethyleneimine soaked filter mats using Filtermate harvester. Scintilation cocktail is then melted onto microwave-dried filters on a hot plate and the radio activity is counted in Microbia counter.

[10] = target: Sigma non-opioid intracellular receptor 1 (Homo sapiens) (UniProt Q99720)
Sigma non-opioid intracellular receptor 1 (Homo sapiens), sequence (Q99720 whole entry): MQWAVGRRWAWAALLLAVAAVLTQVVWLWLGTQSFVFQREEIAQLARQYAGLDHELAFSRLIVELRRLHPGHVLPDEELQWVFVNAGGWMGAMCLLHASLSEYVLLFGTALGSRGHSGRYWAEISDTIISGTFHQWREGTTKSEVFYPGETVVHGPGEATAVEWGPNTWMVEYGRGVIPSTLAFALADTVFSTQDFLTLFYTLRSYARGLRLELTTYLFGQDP
Description: PDSP Primary Binding target: SIGMAR1 - Compounds are tested at 10 uM concentration, plate are incubated at room temperature in the dark for 90 minutes. Reaction are stopped by vacuum filtration onto 0.3% polyethyleneimine soaked filter mats using Filtermate harvester. Scintilation cocktail is then melted onto microwave-dried filters on a hot plate and the radio activity is counted in Microbia counter.

[11] = target: Sodium-dependent dopamine transporter (Homo sapiens) (UniProt Q01959)
Sodium-dependent dopamine transporter (Homo sapiens), sequence (Q01959 whole entry): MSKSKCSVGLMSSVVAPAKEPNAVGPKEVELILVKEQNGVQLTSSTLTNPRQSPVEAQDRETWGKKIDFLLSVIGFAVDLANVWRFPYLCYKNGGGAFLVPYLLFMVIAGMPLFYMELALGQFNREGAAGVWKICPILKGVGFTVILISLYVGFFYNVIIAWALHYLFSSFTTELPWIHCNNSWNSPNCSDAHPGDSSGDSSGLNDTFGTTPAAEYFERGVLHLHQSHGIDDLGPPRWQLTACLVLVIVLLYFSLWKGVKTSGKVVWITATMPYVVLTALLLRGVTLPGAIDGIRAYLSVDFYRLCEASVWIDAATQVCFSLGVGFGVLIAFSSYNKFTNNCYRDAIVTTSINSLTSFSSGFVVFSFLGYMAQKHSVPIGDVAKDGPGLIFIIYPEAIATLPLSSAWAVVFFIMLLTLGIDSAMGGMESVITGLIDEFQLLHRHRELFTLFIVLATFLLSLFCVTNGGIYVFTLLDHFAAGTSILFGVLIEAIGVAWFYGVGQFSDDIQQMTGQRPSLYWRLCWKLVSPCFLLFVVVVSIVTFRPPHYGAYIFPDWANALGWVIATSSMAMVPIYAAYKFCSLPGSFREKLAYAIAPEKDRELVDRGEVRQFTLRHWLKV
Description: PDSP Primary Binding target: SLC6A3 - Compounds are tested at 10 uM concentration, plate are incubated at room temperature in the dark for 90 minutes. Reaction are stopped by vacuum filtration onto 0.3% polyethyleneimine soaked filter mats using Filtermate harvester. Scintilation cocktail is then melted onto microwave-dried filters on a hot plate and the radio activity is counted in Microbia counter.

Row | Structure (SMILES) | inhibition [1] | inhibition [2] | inhibition [3] | inhibition [4] | inhibition [5] | inhibition [6] | inhibition [7] | inhibition [8] | inhibition [9] | inhibition [10] | inhibition [11]
1 | OC[C@H]1O[C@@H](n2cnc3c(NC4CCCC4)ncnc32)[C@H](O)[C@@H]1O | 9.65% | -2.06% | 1.3% | 7.74% | -0.28% | 7.78% | 38.5% | 3.29% | -5.9% | 51.9% | 36.9%
2 | O=C(O)c1cc(-c2ccc(C3CCNCC3)cc2)c2ccc(-c3ccc(C(F)(F)F)cc3)cc2c1 | 38.4% | 16.7% | 47% | 10.7% | 1.23% | 10.6% | 26.6% | 21.6% | 69% | 31.5% | 82.5%
3 | CN1CCN(c2ccc(Nc3c4ccccc4nc4ccccc34)cc2)CC1 | 53.5% | 59.2% | 0.45% | 63.8% | 43.4% | 82.6% | 36.1% | 32% | 20.3% | 86.4% | 62.7%
4 | Cc1cc(NC(=O)NCCN2CCC(O)(Cc3ccccc3)CC2)c2ccccc2n1 | 26.1% | 16.2% | 25.5% | 16.1% | 24.4% | 31% | 62.2% | 4.17% | 5.79% | 56.9% | 43.9%
5 | NC(=O)[C@@H]1CCCN1C(=O)[C@H](Cc1c[nH]cn1)NC(=O)[C@@H]1CCC(=O)N1 | -3.89% | -8.73% | -1.74% | -6.24% | 0.84% | 10.9% | 18.6% | 8.73% | 5.27% | 34.1% | 40.9%
6 | COc1ccc2cc(S(=O)(=O)N[C@H](CC(=O)N[C@H](Cc3ccc(CN4[C@H](C)CCC[C@@H]4C)cc3)C(=O)N(C)C(C)C)c3ccc4c(c3)OCO4)ccc2c1 | 2.74% | 15.9% | -0.19% | 69.6% | 14.5% | 62.1% | 27.5% | 12.8% | 20.3% | 102% | 36.8%
7 | NCCc1cn(S(=O)(=O)c2c(Cl)nc3sccn23)c2ccccc12 | 51.4% | 38.2% | 44.4% | 15.1% | 25.2% | 55.7% | 98.3% | 79.2% | 28.4% | 78.7% | 67.9%
8 | CN(C)C(=O)N[C@H]1CC[C@H](CCN2CCN(c3cccc(Cl)c3Cl)CC2)CC1 | 83.4% | 89.4% | 92.4% | 29.1% | 27.8% | 4.23% | 99% | 6.73% | 69.8% | – | 52.5%
9 | CN1CCC(C(=O)c2cccc(NC(=O)c3c(F)cc(F)cc3F)n2)CC1 | 8.88% | 6.55% | -2.95% | -1.5% | 43.5% | 3.79% | 60.6% | 20.9% | 27.2% | 81.6% | 42.1%
10 | COc1ccc(NC(=O)c2ccc(-c3ccc(-c4noc(C)n4)cc3C)cc2)cc1OCCN(C)C | 26.8% | 38% | 4.01% | 80.8% | 37.2% | 65.4% | 90.6% | 5.18% | 65.6% | 70% | 86.1%
